18 compounds from publication PMC9161259 (ACS Omega, 2022) can be followed below.

In data set [1] the test system is HepG2 hepatocellular carcinoma cell line. The experiment in a line: Cytotoxic assay. Particulars: for IC50: Homo sapiens, HepG2, 48 h, read-out: Cytotoxic activity IC50, HepG2.
The subject of data set [2] is MDA-MB-231 hormone-independent breast cancer cell line. The experiment in a line: Cytotoxic assay. Particulars: Homo sapiens, MDA-MB-231, 48 h, read-out: Cytotoxic activity IC50, MDA-MB-231.
Data set [3] deals with A549 lung carcinoma cell line. Kind of data set: Cytotoxic assay. Particulars: Homo sapiens, A549, 48 h, read-out: Cytotoxic activity IC50, A549.
The next data set has as its target wild-type EGFR (Homo sapiens, UniProt P00533). Kind of data set: ADP-Glo kinase assay, wild-type EGFR. In kind it is biochemical.
For data set [4], the system named is MOLT-3 lymphoblastic leukemia cell line. The experiment in a line: Cytotoxic assay. The settings on record: for IC50: Homo sapiens, MOLT-3, 48 h, read-out: Cytotoxic activity IC50, MOLT-3.
For data set [5], the system named is HuCCA-1 cholangiocarcinoma cancer cell line. The experiment in a line: Cytotoxic assay. Particulars: Homo sapiens, HuCC-A1, 48 h, read-out: Cytotoxic activity IC50, HuCCA-1.
The next data set concerns the target L858R/T790M mutant EGFR (Homo sapiens, UniProt P00533, L858R/T790M). Kind of data set: ADP-Glo kinase assay, L858R/T790M mutant EGFR. The class given is biochemical.
A short description of a further data set: Cytotoxic assay. The settings on record: human, MRC-5 normal embryonic lung cell line.
Data set [6] relates to T47D hormone-dependent breast cancer cell line. The experiment in a line: Cytotoxic assay. Particulars: Homo sapiens, 48 h, read-out: Cytotoxic activity IC50, T47D.

wild-type EGFR, sequence (P00533 25-1210): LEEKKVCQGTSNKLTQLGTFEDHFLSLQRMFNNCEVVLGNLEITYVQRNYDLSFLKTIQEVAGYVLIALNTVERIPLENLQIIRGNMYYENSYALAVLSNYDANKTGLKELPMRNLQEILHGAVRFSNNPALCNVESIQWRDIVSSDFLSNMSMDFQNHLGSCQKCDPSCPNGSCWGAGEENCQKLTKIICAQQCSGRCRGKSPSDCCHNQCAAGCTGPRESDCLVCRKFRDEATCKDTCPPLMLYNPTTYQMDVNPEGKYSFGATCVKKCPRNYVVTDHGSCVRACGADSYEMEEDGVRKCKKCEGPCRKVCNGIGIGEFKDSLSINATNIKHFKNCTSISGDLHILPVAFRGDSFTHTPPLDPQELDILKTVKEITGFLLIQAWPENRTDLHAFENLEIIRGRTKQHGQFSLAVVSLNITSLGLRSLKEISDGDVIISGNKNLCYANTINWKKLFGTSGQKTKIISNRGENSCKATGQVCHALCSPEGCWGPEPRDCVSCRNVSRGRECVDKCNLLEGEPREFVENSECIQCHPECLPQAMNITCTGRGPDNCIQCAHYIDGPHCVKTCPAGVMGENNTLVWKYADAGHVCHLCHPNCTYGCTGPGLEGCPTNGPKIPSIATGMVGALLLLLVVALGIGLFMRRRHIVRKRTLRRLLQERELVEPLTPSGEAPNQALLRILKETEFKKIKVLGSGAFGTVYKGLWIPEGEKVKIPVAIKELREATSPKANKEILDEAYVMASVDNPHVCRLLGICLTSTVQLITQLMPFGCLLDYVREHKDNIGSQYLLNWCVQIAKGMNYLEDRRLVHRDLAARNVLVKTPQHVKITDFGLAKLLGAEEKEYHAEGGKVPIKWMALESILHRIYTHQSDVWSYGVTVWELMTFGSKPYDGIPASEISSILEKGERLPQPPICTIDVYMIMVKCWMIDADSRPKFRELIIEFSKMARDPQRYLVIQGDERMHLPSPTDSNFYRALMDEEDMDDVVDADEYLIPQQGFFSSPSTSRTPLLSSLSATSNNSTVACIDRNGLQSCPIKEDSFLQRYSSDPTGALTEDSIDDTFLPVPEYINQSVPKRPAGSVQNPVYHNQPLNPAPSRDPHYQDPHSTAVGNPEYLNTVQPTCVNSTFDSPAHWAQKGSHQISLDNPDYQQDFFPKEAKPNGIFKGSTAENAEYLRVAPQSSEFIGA
L858R/T790M mutant EGFR, sequence (P00533 25-1210 T790M/L858R): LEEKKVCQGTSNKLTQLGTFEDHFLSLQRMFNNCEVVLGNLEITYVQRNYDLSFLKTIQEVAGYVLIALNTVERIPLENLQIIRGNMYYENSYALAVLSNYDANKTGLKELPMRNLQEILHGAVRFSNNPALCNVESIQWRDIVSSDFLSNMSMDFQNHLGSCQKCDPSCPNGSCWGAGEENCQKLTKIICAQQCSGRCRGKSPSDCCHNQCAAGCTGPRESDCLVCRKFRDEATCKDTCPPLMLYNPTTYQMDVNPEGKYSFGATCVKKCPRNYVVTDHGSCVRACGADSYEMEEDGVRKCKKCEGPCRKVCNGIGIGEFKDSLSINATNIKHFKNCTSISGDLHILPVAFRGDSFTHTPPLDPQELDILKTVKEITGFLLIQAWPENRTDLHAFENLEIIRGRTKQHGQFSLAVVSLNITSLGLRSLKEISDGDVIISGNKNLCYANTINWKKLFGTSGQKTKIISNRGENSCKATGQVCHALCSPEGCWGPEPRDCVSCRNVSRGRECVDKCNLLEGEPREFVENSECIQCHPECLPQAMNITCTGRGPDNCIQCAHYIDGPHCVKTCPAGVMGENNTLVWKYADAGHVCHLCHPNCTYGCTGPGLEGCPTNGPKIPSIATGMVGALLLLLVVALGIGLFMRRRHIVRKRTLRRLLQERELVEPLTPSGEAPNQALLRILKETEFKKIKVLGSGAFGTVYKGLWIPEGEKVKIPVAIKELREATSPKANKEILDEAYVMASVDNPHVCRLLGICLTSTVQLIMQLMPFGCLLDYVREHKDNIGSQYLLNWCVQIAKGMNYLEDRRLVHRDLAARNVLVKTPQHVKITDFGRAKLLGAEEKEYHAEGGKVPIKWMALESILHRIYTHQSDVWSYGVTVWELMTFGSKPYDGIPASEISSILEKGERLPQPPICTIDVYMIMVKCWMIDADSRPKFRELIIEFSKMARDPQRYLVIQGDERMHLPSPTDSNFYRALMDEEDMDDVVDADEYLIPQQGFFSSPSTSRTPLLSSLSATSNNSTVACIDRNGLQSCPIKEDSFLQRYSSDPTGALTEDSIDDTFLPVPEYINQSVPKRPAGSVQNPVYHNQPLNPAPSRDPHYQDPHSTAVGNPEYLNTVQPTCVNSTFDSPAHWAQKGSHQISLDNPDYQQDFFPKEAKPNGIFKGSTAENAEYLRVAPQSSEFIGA

Turning to `Cc1ccc(NC2=C(Cl)C(=O)c3ccccc3C2=O)cc1` [compound 3, 2-Chloro-3-(p-tolylamino)naphthalene-1,4-dione], the half-maximal inhibitory concentration (IC50) in data set [1] is 127.4 ± 0.65 µM; in data set [2] it was 10.7 ± 1.89 µM; in [3], greater than 50 µg/mL; against wild-type EGFR, 0.00396 ± 0.00066 µM; in [4], 4.3 ± 0.46 µM; in data set [5], 42.2 ± 1.96 µM. Besides, the IC50 against L858R/T790M mutant EGFR was greater than 0.1 µM; in [6] it was 39.5 ± 0.3 µM. The “EGFR inhibitory activity, times higher than that of erlotinib” value at wild-type EGFR (ratio of IC50 values, wild-type EGFR) stood at 4 fold. Besides, in the data set “Cytotoxic assay”, the IC50 at 48 h came out at 92.43 ± 0.02 µM.
On to `O=C1C(Cl)=C(Nc2ccc(F)cc2)C(=O)c2ccccc21` [compound 4, 2-Chloro-3-((4-fluorophenyl)amino)naphthalene-1,4-dione], for which the IC50 was 131.9 ± 1.13 µM in data set [1]; 17 ± 0.2 µM in [2]; 148 ± 2.55 µM in [3]; 7.45 ± 1.06 µM in [4]; 58.7 ± 0.64 µM in data set [5]; 17.9 ± 0.76 µM in data set [6]. The compound also had a half-inhibitory concentration (IC50) at 48 h in “Cytotoxic assay” of 20.2 ± 1.4 µM.
Take `O=C1C(Cl)=C(Nc2ccc(Br)cc2)C(=O)c2ccccc21` [compound 5, 2-((4-Bromophenyl)amino)-3-chloronaphthalene-1,4-dione]: the “Cytotoxic activity IC50, HepG2” value in [1] was “inactive”. The IC50 in data set [1], in data set [2], in data set [3], in [4], in [5] and in data set [6] was greater than 50 µg/mL in each case. Besides, the “Cytotoxic activity IC50, MOLT-3” value in [4] was “inactive”. The 50% inhibitory concentration (IC50) at 48 h in “Cytotoxic assay” was greater than 50 µg/mL.
For `O=C1C(Cl)=C(Nc2ccc(I)cc2)C(=O)c2ccccc21` [compound 6, 2-Chloro-3-((4-iodophenyl)amino)naphthalene-1,4-dione], the concentration for half-maximal inhibition (IC50) is greater than 50 µg/mL in data set [1]; greater than 50 µg/mL in data set [2]; greater than 50 µg/mL in [3]; 42.6 ± 8.11 µM in data set [4]; greater than 50 µg/mL in data set [5]; 52.5 ± 0.85 µM in data set [6]. Besides, in the data set “Cytotoxic assay”, the IC50 at 48 h was greater than 50 µg/mL.
Turning to `O=C1C(Cl)=C(Nc2ccc(C(F)(F)F)cc2)C(=O)c2ccccc21` [compound 7, 2-Chloro-3-((4-(trifluoromethyl)phenyl)amino)naphthalene-1,4-dione], the IC50 in data set [1] was greater than 50 µg/mL; in data set [2], 70.8 ± 2.19 µM; in data set [3], greater than 50 µg/mL; in [4], 7.68 ± 0.84 µM; in data set [5], greater than 50 µg/mL; in data set [6], 63.4 ± 2.12 µM. The compound further displayed an IC50 at 48 h in the data set “Cytotoxic assay” greater than 50 µg/mL.
As to `O=C1C(Cl)=C(Nc2ccc([N+](=O)[O-])cc2)C(=O)c2ccccc21` [compound 8, 2-Chloro-3-((4-nitrophenyl)amino)naphthalene-1,4-dione], the IC50 was 86.1 ± 1.61 µM in [1]; 11.1 ± 2.84 µM in [2]; 70 ± 2.04 µM in [3]; 0.0114 ± 0.00035 µM on wild-type EGFR; 1.98 ± 0.28 µM in data set [4]; 16.3 ± 0.98 µM in data set [5]. Further, the IC50 is greater than 0.1 µM against L858R/T790M mutant EGFR and 11.7 ± 0.19 µM in data set [6]. In “Cytotoxic assay”, this compound came in with an IC50 at 48 h of 74.9 ± 7.21 µM.
Regarding `N#Cc1ccc(NC2=C(Cl)C(=O)c3ccccc3C2=O)cc1` [compound 9, 4-((3-Chloro-1,4-dioxo-1,4-dihydronaphthalen-2-yl)amino)benzonitrile], the IC50 in [1] turned out to be 73.4 ± 2.26 µM; in [2], 43.08 ± 0.19 µM; in data set [3] it was 72.72 ± 0.21 µM; in data set [4], 1.75 ± 0.2 µM; in data set [5], 22.67 ± 0.09 µM; in data set [6], 11.27 ± 0.06 µM. In addition, it took 18.4 ± 1.65 µM to reach half-maximal inhibition in the data set “Cytotoxic assay” (IC50 at 48 h).
For the compound `O=C1C(Cl)=C(Nc2cccc([N+](=O)[O-])c2)C(=O)c2ccccc21` [compound 10, 2-Chloro-3-((3-nitrophenyl)amino)naphthalene-1,4-dione], the half-inhibitory concentration (IC50) in data set [1] is greater than 50 µg/mL; in data set [2], 16.2 ± 0.57 µM; in [3], 114.1 ± 0.71 µM; against wild-type EGFR it was 0.0186 ± 0.00141 µM; in [4], 2.98 ± 0.25 µM; in data set [5], 42.1 ± 0.74 µM. In addition, the figures for the IC50 (against L858R/T790M mutant EGFR; in data set [6]) were greater than 0.1 µM and 19.2 ± 1.77 µM, respectively. The concentration for half-maximal inhibition (IC50) at 48 h in “Cytotoxic assay” worked out at 74.53 ± 0.71 µM.
As to `COc1ccc(NC2=C(Cl)C(=O)c3ccccc3C2=O)cc1` [compound 11, 2-Chloro-3-((4-methoxyphenyl)amino)naphthalene-1,4-dione], the half-inhibitory concentration (IC50) in data set [1] was greater than 50 µg/mL; in data set [2], 105 ± 2.72 µM; in [3], greater than 50 µg/mL; in [4] it was 17.6 ± 3.3 µM; in data set [5], greater than 50 µg/mL; in data set [6] it was greater than 50 µg/mL. In the data set “Cytotoxic assay”, this compound yielded an IC50 at 48 h greater than 50 µg/mL.
As for `O=C1C(Cl)=C(Nc2ccc(O)cc2)C(=O)c2ccccc21` [compound 12, 2-Chloro-3-((4-hydroxyphenyl)amino)naphthalene-1,4-dione], the IC50 in data set [1] was 22.6 ± 0.87 µM; in [2] it was 4.77 ± 0.07 µM; in data set [3], 30.73 ± 0.18 µM; in data set [4], 4.67 ± 0.24 µM; in data set [5], 8.21 ± 0.33 µM; in data set [6], 14.7 ± 0.43 µM. In the data set “Cytotoxic assay”, this compound yielded an IC50 at 48 h of 11.4 ± 3.28 µM.
Consider `O=C1C(Br)=C(Nc2ccccc2)C(=O)c2ccccc21` [compound 13, 2-Bromo-3-(phenylamino)naphthalene-1,4-dione], for which the IC50 in data set [1] was 20.1 ± 0.54 µM; in data set [2], 9.48 ± 2.17 µM; in [3], 27.91 ± 0.05 µM; in data set [4], 2.74 ± 0.02 µM; in data set [5] it was 15.6 ± 0.54 µM; in [6], 10.1 ± 0.27 µM. Further, half-maximal inhibition in “Cytotoxic assay” (IC50 at 48 h) was put at 15.3 ± 2.67 µM.
Turning to `O=C1C(Br)=C(Nc2ccc(F)cc2)C(=O)c2ccccc21` [compound 14, 2-Bromo-3-((4-fluorophenyl)amino)naphthalene-1,4-dione], the half-inhibitory concentration (IC50) came to 19.1 ± 0.82 µM in data set [1]; 7.54 ± 2.07 µM in [2]; 50 ± 3 µM in data set [3]; 4.65 ± 0.41 µM in [4]; 16.2 ± 1.65 µM in [5]; 28.5 ± 1 µM in data set [6]. This compound registered a 50% inhibitory concentration (IC50) at 48 h in “Cytotoxic assay” of 12.5 ± 0.74 µM.
As to `O=C1C(Br)=C(Nc2ccc(Br)cc2)C(=O)c2ccccc21` [compound 15, 2-Bromo-3-((4-bromophenyl)amino)naphthalene-1,4-dione], the IC50 is 4.94 ± 0.02 µM in data set [1]; 65.5 ± 3.01 µM in data set [2]; greater than 50 µg/mL in data set [3]; 7.17 ± 1.12 µM in [4]; 70.2 ± 1.12 µM in data set [5]; greater than 50 µg/mL in data set [6]. The compound also had a 50% inhibitory concentration (IC50) at 48 h in the data set “Cytotoxic assay” greater than 50 µg/mL.
On to `O=C1C=C(Nc2ccccc2)C(=O)c2ccccc21` [compound 16, 2-(Phenylamino)naphthalene-1,4-dione], for which the concentration for half-maximal inhibition (IC50) in [1] is 25.1 ± 3.31 µM; in data set [2] it was 30.4 ± 0.86 µM; in [3], 40.8 ± 1.51 µM; in [4] it was greater than 50 µg/mL; in data set [5], 96.2 ± 2.84 µM; in data set [6], greater than 50 µg/mL. The same compound displayed a concentration for half-maximal inhibition (IC50) at 48 h in “Cytotoxic assay” greater than 50 µg/mL.
Turning to `O=C1C=C(Nc2ccc(F)cc2)C(=O)c2ccccc21` [compound 17, 2-((4-Fluorophenyl)amino)naphthalene-1,4-dione], the IC50 in data set [1] was 23.4 ± 3.45 µM; in [2], 21.8 ± 2.95 µM; in data set [3] it was greater than 50 µg/mL; in [4], greater than 50 µg/mL; in data set [5], 9.65 ± 1.99 µM; in [6], 88.7 ± 1.64 µM. This compound registered an IC50 at 48 h in “Cytotoxic assay” of 21.6 ± 2.45 µM.
`COc1ccc(NC2=CC(=O)c3ccccc3C2=O)cc1` [compound 18, 2-((4-Methoxyphenyl)amino)naphthalene-1,4-dione]: the 50% inhibitory concentration (IC50) in data set [1], in [2], in data set [3], in data set [4], in data set [5] and in data set [6] was greater than 50 µg/mL throughout. Further, the half-inhibitory concentration (IC50) at 48 h in the data set “Cytotoxic assay” was greater than 50 µg/mL.
Turning to `COc1cccc2c1C(=O)c1c(O)c3c(c(O)c1C2=O)C[C@@](O)(C(=O)CO)C[C@@H]3O[C@H]1C[C@H](N)[C@H](O)[C@H](C)O1` [doxorubicin, reference compound], the half-inhibitory concentration (IC50) turned out to be 0.5 ± 0.04 µM in [1]; 2.1 ± 0.06 µM in data set [2]; 0.34 ± 0.01 µM in [3]; 0.02 µM in data set [4]; 1.17 ± 0.05 µM in [5]; 1.04 ± 0.01 µM in data set [6]. In “Cytotoxic assay”, the IC50 at 48 h is 2.67 ± 0.2 µM.
`COc1cc([C@@H]2c3cc4c(cc3[C@@H](O[C@@H]3O[C@@H]5CO[C@@H](C)O[C@H]5[C@H](O)[C@H]3O)[C@H]3COC(=O)[C@H]23)OCO4)cc(OC)c1O` [etoposide, reference compound]: the results for the IC50 in [1] and in data set [4] were 50 ± 3.7 µM and 0.05 µM, respectively.
